The results in this text go back to patent US20140294729A1, “METHODS FOR IDENTIFICATION AND USE OF AGENTS TARGETING CANCER STEM CELLS” (Whitehead Institute for Biomedical Research, priority 2008, published 2014).

SMILES strings stand for the structures. “Also recorded” adds a separate entry of the source.

In one assay the test system is HMLEshEcad cells. Put plainly: Co-culture of GFP-labeled HMLEshEcad cells and control HMLE cells (1:20), FACS for GFP positivity. Format: cell-based, human. The procedure:
FIGS. 2A-2D depict that passage through the EMT leads to resistance to conventional chemotherapy drugs. FIG. 2A depicts dose response curves of transformed HMLERshCntrl (light gray line) and HMLERshEcad (dark gray line) cells treated with Paclitaxel and Doxorubicin. Dotted line denotes the 50% fraction surviving. […] FIG. 2B depicts the response of immortalized cells to chemotherapy drugs. HMLEshCntrl and HMLEshEcad cells were treated with the indicated drugs at three concentrations for 3 days and assayed for viability using the MTS assay. While Doxorubucin, Actinomycin D, Paclitaxel and Campthotecin are chemotherapeutic drugs, Staurosporine is a general kinase inhibitor that potently induce apoptosis. FIGS. 2C and 2D depict paclitaxel treatment leads to selective expansion of a minority cell population that has undergone an EMT. Control HMLE cells and GFP expressing HMLEshEcad cells were mixed at a ratio of 20:1 and seeded onto 6-well plates in triplicate. DMSO or Paclitaxel at 2.5 nm or 10 nm concentration was added onto the mixed cell populations 1 day after seeding followed by a 3 day incubation. The number of GFP-positive cells at the end of treatment were analyzed by flow cytometry. […] Note the increase in GFP positivity from 5% to 14% upon […] Paclitaxel treatment.
To further characterize the observed drug resistance, we paclitaxel-treated co-cultures of GFP-labeled HMLEshEcad cells and unlabeled controls cells (1:20 ratio).
This was observed independently of whether or not the cell lines had undergone neoplastic transformation. To determine the effect of conventional chemotherapy drugs on a mixture of epithelial cells that have and epithelial cells that have not undergone EMT, we co-mixed GFP-labeled HMLEsiEcad cells with unlabeled HMLEsiGFP cells at a ratio of 1:20, and treated the resulting co-culture with Paclitaxel. This non-stoichiometric mixture provided an internally controlled method to evaluate whether differential drug sensitivity was also manifest under conditions in which epithelial cells having undergone EMT were in the minority.
For the mix experiments, unlabelled and GFP-labeled cells were mixed at the indicated ratios and seeded onto 6-well plates. Triplicate wells were then treated with dmso or the compounds (paclitaxel, salinomycin, abamectin and blasticidin) for 48 hrs. The cells were washed with PBS, trypsinized and analyzed by FACS for GFP positivity.

In the next assay the test system is HMLERshEcad cells. Description: Dose response of transformed HMLERshCntrl vs HMLERshEcad cells to screen hits. The conditions noted are these: range of concentrations, FIG. 4D. The class given is cell-based, human. The procedure:
FIG. 4A depicts dose response curves of HMLEshCntrl (A, light gray curve) and HMLEshEcad (A, dark gray curve) cells treated with the 8 compounds identified during the initial screen. 1000 cells of each line were seeded onto 384 well plates and treated with 8 different concentrations of compounds within a 2.5 log range. The cell viability after 3 day treatment was measured by Cell-Titer-Glo. […] FIG. 4B depicts dose response curves of HMLEshCntrl (curve with square data points) and HMLE-Twist (curve with triangular data points) cells treated with the same compounds as in (A). Note that selectivity of Salinomycin, Abamectin, Etoposide and Nigericin (Top, Left-to-Right) is retained even though a different method of EMT induction is used. […] 1 Day after seeding DMSO, Salinomycin (1.25 or 5 μM) or Abamectin (0.25 or 1.25 μM) was added at the indicated concentration. As the GFP vector contains a Blasticidin resistance gene, we used Blasticidin treatment as a positive control for the expansion of GFP-expressing control HMLE cells. After 3 day incubation the mix population of cells were analyzed by flow cytometry and the percentage of GFP-positive cells were determined. […] FIG. 4D depicts dose response curves of transformed HMLERshCntrl (light gray line) and HMLERshEcad (dark gray lines) cells treated with Salinomycin and Abamectin. Dotted line denotes the 50% fraction surviving.

The subject of assay [1] is breast CSC and progenitor genes. Put plainly: Gene set enrichment analysis of stem-like cell gene sets after treatment. The class given is cell-based. The conditions noted are these: in comparison with paclitaxel treatment, FIG. 16. From the text: Gene set enrichment analysis was used to determine whether three previously reported sets of genes associated with stem-like cells were repressed in response to salinomycin in comparison with paclitaxel treatment. Graphed are the Kolmogorov-Smimov enrichment scores versus Gene ranks based on differential expression. P-values reflecting statistical significance for each analysis are shown.
Gene set enrichment analysis was used to determine whether three previously reported sets of genes associated with stem-like cells were repressed in response to salinomycin in comparison with paclitaxel treatment. Graphed are the Kolmogorov-Smirnov enrichment scores versus Gene ranks based on differential expression. P-values reflecting statistical significance for each analysis are shown. The three previously reported gene signatures are: CD44+CD24− IGS (Liu et al., 2007), CD44+CD24− (Shipitsin et al., 2007) and Mammosphere (Dontu et al., 2003). (FIG. 16.)

Assay [2] concerns SUM159, MDA-MB-231 and T47D cells. Description: Dose response of breast cancer cell lines differing in CSC marker expression. The class given is cell-based. The conditions noted are these: range of doses, FIG. 5B. From the text:
FIG. 5A depicts flow cytometry analysis of Sum159, MDA-MB-231 and T47D cell lines with respect to cell surface expression of CD44 and CD24. Note that while the majority of cells in Sum159 and MDA-MB-231 line contain large amounts of CSCs, T47D cells have very few such cells. FIG. 5B depicts dose response curves of Sum159, MDA-MB-231 and T47D cell treated with Salinomycin.
Cancer stem cells are resistant to a wide spectrum of treatments and chemotherapeutics. Since the compounds identified using the described screening approach preferentially target epithelial cells having undergone EMT, we wished to determine whether such compounds might also serve to target cancer stem cells.

Another assay relates to HMLER cells. Put plainly: Growth rate of HMLER cultures after treatment. The class given is cell-based, human. The following applies: FIG. 6B. The procedure: FIGS. 6A and 6B depict effects of salinomycin on the CSC population in HMLER cell line. (FIG. 6A) HMLER cells were treated with vehicle control (dmso), salinomycin or paclitaxel at the indicated concentrations for 15 days. FACS analysis were performed at the end of treatment to gauge the CD44+/CD24− CSC population (right panels). Note that salinomycin decreases the CD44+/CD24− population from a basal of 4.9% to 0.2%. Treated cultures were also subjected to the mammosphere formation assay (left panels). Number of mammopsheres formed per 1000 cells from each culture are indicated below the representative photographs of assay wells. (FIG. 6B) Growth rates of HMLER cultures after treatment with vehicle control (dmso), salinomycin or paclitaxel at the indicated concentrations in (A) for 15 days.
We then turned to the critical question of whether the compounds had the general ability to inhibit CSCs in breast cancer cell lines. […] We next compared the effects of salinomycin, control vehicle DMSO and paclitaxel on HMLER cells. […] The CD44+/CD24− fraction was thus 360-fold lower following treatment with salinomycin than with paclitaxel (FIG. 6A). Proliferation of the bulk population was not inhibited following treatment with salinomycin relative to either vehicle- or paclitaxel-treatment (FIG. 6B).

As to `CC(=O)O[C@H]1C(=O)[C@@]2(C)[C@H]([C@H](OC(=O)c3ccccc3)[C@]3(O)C[C@H](OC(=O)[C@H](O)[C@@H](NC(=O)c4ccccc4)c4ccccc4)C(C)=C1C3(C)C)[C@]1(OC(C)=O)CO[C@@H]1C[C@@H]2O` [paclitaxel], the “increase in HMLEsiEcad cells having undergone EMT” value in the assay with HMLEshEcad cells (2.5 nM) is listed as “more modest increase”. Moreover, the “increase in HMLEsiEcad cells having undergone EMT relative to DMSO-treated co-cultures” value in the assay on HMLEshEcad cells (10 nM, after 3 days, 1:20 ratio) was 4 fold. The “increase in the proportion of HMLEshEcad cells compared to DMSO-treated co-cultures” value in the assay with HMLEshEcad cells (10 nM, treatment for 4 days, 1:20 ratio) worked out at 4 fold. The “GFP positivity after treatment (from 5%)” value in the assay with HMLEshEcad cells (3 day incubation) turned out to be 14%.
With `CC[C@@H](C(=O)[C@@H](C)[C@@H](O)[C@H](C)[C@@H]1O[C@@H]([C@@H](CC)C(=O)O)CC[C@@H]1C)[C@H]1O[C@]2(C=C[C@@H](O)[C@]3(CC[C@@](C)([C@H]4CC[C@](O)(CC)[C@H](C)O4)O3)O2)[C@H](C)C[C@@H]1C` [salinomycin], the “selective toxicity for HMLERshEcad (MT tumorigenic) cells” value with HMLERshEcad cells was “selectively toxic”; in the assay with HMLERshEcad cells (listed as Salinomycin), “remains”. Further, the “expression of clinically relevant breast CSC and progenitor genes” value in assay [1] was “reduces the expression”. For the same molecule, the “sensitivity of CSC-enriched SUM159 and MDA-MB-231 relative to CSC-poor T47D cells” value in assay [2] is reported as “positively correlated; also recorded: more sensitive”. Besides, the “proliferation of the bulk population relative to vehicle- or paclitaxel-treatment” value in the assay on HMLER cells is recorded as “not inhibited”.
